Values belong to the molecule of their own block, whether it stands above or below them. Active and inactive are the calls of the source. No cut-off for these calls is given here.
How the values were obtained:
Leishmania infantum [1] = assay: Antileishmanial activity against Leishmania infantum promastigote after 72 hrs by MTT assay; assay type: functional, organism-based
Leishmania infantum [2] = assay: Antileishmanial activity against Leishmania infantum amastigotes infected in human THP1 cells after 96 hrs by prolong-gold antifade-reagent/DAPI staining based assay; assay type: functional, organism-based; details: THP-1, 96 h
THP-1 = assay: Cytotoxicity against human THP1 cells assessed as reduction in cell viability after 72 hrs by MTT assay; assay type: cell-based; details: THP-1, 72 h
[3] = Selectivity index, ratio of EC50 for cytotoxicity against human THP1 cells to EC50 for antileishmanial activity against Leishmania infantum amastigotes infected in human THP1 cells; assay type: toxicity, cell-based; details: read-out: Ratio EC50
[4] = Drug uptake in Leishmania infantum LEM 3049 isolate promastigotes at 20 uM after 10 mins at 28 degC by fluorimetric assay; assay type: ADME
[5] = Drug uptake in ATP depleted Leishmania infantum LEM 3049 isolate promastigotes at 20 uM after 10 mins in presence of 2-deoxy-D-glucose by fluorimetric assay; assay type: ADME
[6] = Drug uptake in Leishmania infantum LEM 3049 isolate promastigotes at 20 uM after 10 mins at 4 degC by fluorimetric assay; assay type: ADME
Leishmania donovani [7] = assay: Antileishmanial activity against Leishmania donovani MHOM/ET/67/HU3 promastigote after 72 hrs by MTT assay; assay type: functional, organism-based; details: MHOM/ET/67/HU3, 72 h
Leishmania donovani [8] = assay: Antileishmanial activity against Leishmania donovani MHOM/ET/67/HU3 intracellular amastigotes infected in human THP1 cells after 96 hrs by prolong-gold antifade-reagent/DAPI staining based assay; assay type: functional, organism-based; details: MHOM/ET/67/HU3, THP-1, 96 h
[9] = Selectivity index, ratio of EC50 for cytotoxicity against human THP1 cells to EC50 for antileishmanial activity against Leishmania donovani MHOM/ET/67/HU3 amastigotes infected in human THP1 cells; assay type: toxicity, cell-based; details: read-out: Ratio EC50
Leishmania donovani [10] = assay: Potency index, ratio of amphotericin B EC50 to test compound EC50 for antileishmanial activity against Leishmania […] amastigote infected in THP1 cells; assay type: functional
Leishmania infantum [11] = assay: Antileishmanial activity against Leishmania infantum LEM 3049 isolate promastigote after 72 hrs by MTT assay; assay type: functional, organism-based
Leishmania infantum [12] = assay: Antileishmanial activity against Sb 3 resistant Leishmania infantum LEM 3329 isolate promastigote after 72 hrs by MTT assay; assay type: functional, organism-based
Leishmania infantum [13] = assay: Antileishmanial activity against MIL resistant Leishmania infantum LEM 5159 isolate promastigote after 72 hrs by MTT assay; assay type: functional, organism-based
Leishmania infantum [14] = assay: Antileishmanial activity against MIL/paromomycin resistant Leishmania infantum LEM 2126 isolate promastigote after 72 hrs by MTT assay; assay type: functional, organism-based
Leishmania infantum [15] = assay: Antileishmanial activity against Leishmania infantum LEM 3049 isolate intracellular amastigotes infected in human THP1 cells after 96 hrs by prolong-gold antifade-reagent/DAPI staining based assay; assay type: functional, organism-based; details: THP-1, 96 h, read-out: EC50
Leishmania infantum [16] = assay: Antileishmanial activity against Sb 3 resistant Leishmania infantum LEM 3329 isolate intracellular amastigotes infected in human THP1 cells after 96 hrs by prolong-gold antifade-reagent/DAPI staining based assay; assay type: functional, organism-based; details: THP-1, 96 h
Leishmania infantum [17] = assay: Antileishmanial activity against MIL resistant Leishmania infantum LEM 5159 isolate intracellular amastigotes infected in human THP1 cells after 96 hrs by prolong-gold antifade-reagent/DAPI staining based assay; assay type: functional, organism-based; details: THP-1, 96 h
Leishmania infantum [18] = assay: Antileishmanial activity against MIL/paromomycin resistant Leishmania infantum LEM 2126 isolate intracellular amastigotes infected in human THP1 cells after 96 hrs by prolong-gold antifade-reagent/DAPI staining based assay; assay type: functional, organism-based; details: THP-1, 96 h
[19] = Cmax in BALB/c mouse at 20 mg/kg, po measured for up to 72 hrs by HPLC analysis; assay type: ADME, organism-based; parameters: dose 20 mg/kg, route oral; details: in vivo
[20] = Tmax in BALB/c mouse at 20 mg/kg, po measured for up to 72 hrs by HPLC analysis; assay type: ADME, organism-based; details: in vivo
[21] = Primary phase half life in BALB/c mouse at 20 mg/kg, po measured for < 6 hrs by HPLC analysis; assay type: ADME, organism-based; details: in vivo, read-out: alphat1/2 (converted)
[22] = Apparent terminal half life in BALB/c mouse at 20 mg/kg, po measured for 6 to 72 hrs by HPLC analysis; assay type: ADME, organism-based; details: in vivo, read-out: betat1/2(app) (converted)
[23] = Half life in CD-1 mouse liver microsomes at 5 to 10 uM measured for 120 mins in presence of NADPH by RP-HPLC analysis; assay type: ADME, Microsome
[24] = Half life in CD-1 mouse liver microsomes at 10 to 20 uM measured for 120 mins in presence of UDPGA by RP-HPLC analysis; assay type: ADME, Microsome
[25] = Half life in human liver microsomes at 5 to 10 uM measured for 120 mins in presence of NADPH by RP-HPLC analysis; assay type: ADME, Microsome
[26] = Half life in human liver microsomes at 10 to 20 uM measured for 120 mins in presence of UDPGA by RP-HPLC analysis; assay type: ADME, Microsome
[27] = Metabolic stability in human liver S9 fraction at 5 to 10 uM measured for 120 mins in presence of NADPH by RP-HPLC analysis; assay type: ADME, subcellular; details: s9, 2 h
[28] = Metabolic stability in human liver S9 fraction at 10 to 20 uM measured for 120 mins in presence of UDPGA by RP-HPLC analysis; assay type: ADME, subcellular; details: s9, 2 h
Leishmania infantum [29] = assay: Induction of mitochondrial membrane potential loss in Leishmania infantum LEM 3049 isolate promastigotes at 0.02 uM after 30 mins by JC-1 dye based flow cytometric analysis relative to control; assay type: functional
Leishmania infantum [30] = assay: Induction of mitochondrial membrane potential loss in Leishmania infantum LEM 3049 isolate promastigotes at 1 uM after 24 hrs by JC-1 dye based flow cytometric analysis relative to control; assay type: functional
Leishmania infantum [31] = assay: Antileishmanial activity against Leishmania infantum LEM 3049 isolate promastigotes assessed as decrease in ATP level at 0.02 to 1 uM after 30 mins by CellTiter-Glo luminescence assay relative to control; assay type: functional; parameters: scale not given: the % may be the effect or the level left
Leishmania infantum [32] = assay: Antileishmanial activity against Leishmania infantum LEM 3049 isolate promastigotes assessed as decrease in ATP level at 0.02 uM after 120 mins by CellTiter-Glo luminescence assay relative to control; assay type: functional; parameters: scale not given: the % may be the effect or the level left
Leishmania infantum [33] = assay: Antileishmanial activity against Leishmania infantum LEM 3049 isolate promastigotes assessed as decrease in ATP level at 0.1 uM after 120 mins by CellTiter-Glo luminescence assay relative to control; assay type: functional; parameters: scale not given: the % may be the effect or the level left
Leishmania infantum [34] = assay: Antileishmanial activity against Leishmania infantum LEM 3049 isolate promastigotes assessed as decrease in ATP level at 1 uM after 120 mins by CellTiter-Glo luminescence assay relative to control; assay type: functional; parameters: scale not given: the % may be the effect or the level left
Leishmania infantum [35] = assay: Induction of ROS generation in Leishmania infantum LEM 3049 isolate promastigotes at 1 uM after 2 hrs by H2DCFDA staining based flow cytometric analysis relative to control; assay type: functional
Leishmania infantum [36] = assay: Induction of plasma membrane permeabilization in Leishmania infantum LEM 3049 isolate promastigotes 0.02 to 1 uM incubated for 2 hrs by SYTOX Green based flow cytometric analysis; assay type: functional, organism-based
Leishmania infantum [37] = assay: Induction of plasma membrane depolarization in Leishmania infantum LEM 3049 isolate promastigotes incubated for 2 hrs by DiBAC4(3) probe based flow cytometric analysis; assay type: functional, organism-based
Leishmania infantum [38] = assay: Induction of apoptosis in Leishmania infantum LEM 3049 isolate promastigotes assessed as DNA fragmentation at 0.02 to 5 uM after 4 hrs by TUNEL assay; assay type: functional, organism-based
[39] = Solubility of the compound in water; assay type: physicochemical; details: buffer
[40] = Acute toxicity in BALB/c mouse at 20 mg/kg, po; assay type: organism-based; details: in vivo
[41] = Thermodynamic solubility of the compound in 5% gamma-cyclodextrin in water (w/w) colloidal suspension; assay type: physicochemical; details: read-out: Therm_solubility
[42] = Plasma concentration in BALB/c mouse infected with Leishmania infantum LEM 3049 isolate promastigote at 1.5 mg/kg, po for 4 days by HPLC analysis
[43] = Plasma concentration in BALB/c mouse infected with Leishmania infantum LEM 3049 isolate promastigotes at 1.5 mg/kg, po administered for 4 days and measured 2 days post last dose by HPLC analysis; details: in vivo, 48 h, BLD = below limit of detection
[44] = Drug concentration in BALB/c mouse liver infected with Leishmania infantum LEM 3049 isolate promastigotes at 1.5 mg/kg, po administered for 4 days and measured 2 days post last dose by HPLC analysis; details: in vivo, 48 h, BLD = below limit of detection
[45] = Drug concentration in BALB/c mouse spleen infected with Leishmania infantum LEM 3049 isolate promastigotes at 1.5 mg/kg, po administered for 4 days and measured 2 days post last dose by HPLC analysis; details: in vivo, 48 h, BLD = below limit of detection
Leishmania infantum [46] = assay: Antileishmanial activity against Leishmania infantum LEM 3049 isolate promastigotes infected in BALB/c mouse assessed as reduction in parasite burden in liver at 1.5 mg/kg, po administered for 4 days and measured 2 days post last dose by light microscopic method relative to control; parameters: scale not given: the % may be the effect or the level left
Leishmania infantum [47] = assay: Antileishmanial activity against Leishmania infantum LEM 3049 isolate promastigotes infected in BALB/c mouse assessed as reduction in parasite burden in spleen at 1.5 mg/kg, po administered for 4 days and measured 2 days post last dose by light microscopic method relative to control; parameters: scale not given: the % may be the effect or the level left

- EC50 (Leishmania infantum [2]): 1250 nM
- Drug uptake [4]: Active
- Drug uptake [5]: Active
- Drug uptake [6]: Active
Compound: O=C(CCCCCCCCCCCCCCC[P+](c1cccc2ccccc12)(c1cccc2ccccc12)c1cccc2ccccc12)c1ccc(O)cc1O.[Br-]
- EC50 (Leishmania infantum [1]): 3540 nM
- EC50 (THP-1): 12800 nM
- selectivity ratio [3]: 10.3

Compound: O=C(CCCCCCCCCCCCCCC[P+](c1ccccc1)(c1ccccc1)c1ccccc1)c1ccc(O)cc1O.[Br-]
- EC50 (Leishmania donovani [7]): 70 nM
- EC50 (Leishmania donovani [8]): 90 nM
- EC50 (THP-1): 2810 nM
- selectivity ratio [9]: 31.2
- Ratio EC50 (Leishmania donovani [10]): 2
- EC50 (Leishmania infantum [11]): 80 nM
- EC50 (Leishmania infantum [12]): 100 nM
- EC50 (Leishmania infantum [13]): 110 nM
- EC50 (Leishmania infantum [14]): 120 nM
- EC50 (Leishmania infantum [15]): 120 nM
- EC50 (Leishmania infantum [16]): 150 nM
- EC50 (Leishmania infantum [17]): 140 nM
- EC50 (Leishmania infantum [18]): 140 nM
- Cmax [19]: 182 µM
- Tmax [20]: 1 h
- half-life [21]: 1 h
- half-life [22]: 23 h
- half-life [23]: < 0.5 h
- half-life at up to 20 µM [24]: < 0.5 h
- half-life [25]: > 2 h
- half-life at up to 20 µM [26]: > 2 h
- Stability [27]: Stable
- Stability [28]: Stable
- Activity (Leishmania infantum [29]): 86%
- Activity (Leishmania infantum [30]): 97%
- Activity (Leishmania infantum [31]): 50 - 74%
- Activity (Leishmania infantum [32]): 91%
- Activity (Leishmania infantum [33]): 89%
- Activity (Leishmania infantum [34]): 87%
- fold change (FC) (Leishmania infantum [35]): 8
- Activity (Leishmania infantum [36]): inactive
- Activity (Leishmania infantum [37]): Dose-dependent effect
- Activity (Leishmania infantum [38]): inactive
- solubility [39]: Insoluble
- Activity [40]: Toxic
- solubility thermodynamic [41]: 520 µg/mL
- concentration at 96 h [42]: > 0.09 µM
- Cp [43]: Bld
- Drug uptake [44]: Bld
- Drug uptake [45]: Bld
- Activity (Leishmania infantum [46]): 95.3%
- Activity (Leishmania infantum [47]): 98.9%
